Earlier results as cited in paper PMC13151045, “Accounting for Differences in Plasma Protein Binding between Fish and Humans for Supporting Environmental Risk Assessment of Pharmaceuticals Using the Fish Plasma Model” (Environmental Science & Technology, 2026).

Conditions: minimum reported human therapeutic plasma concentration; ref footnote e of Table 4

Human C max [ng/mL]	SMILES
55.8	CC1Cc2ccccc2N1NC(=O)c1ccc(Cl)c(S(N)(=O)=O)c1 (centres unmarked) [Indapamide]
20	CC(C)NCC(O)COc1cccc2ccccc12 (centres unmarked) [Propranolol]
